“Also recorded” adds a separate entry of the source.
What was measured:
mammary gland tumor = assay: Tumor model: mammary gland tumor; format: in vivo, mice; settings: mammary gland tumor (FIG. 22A, 23A)
Text: (§1) FIGS. 23A-H is a set of curves showing the tumor growth of mice treated with PBS (Control, circles) or guanabenz (GBZ, triangles) in different tumor models: such as mammary gland tumor (FIG. 23A), hepatocellular carcinoma (FIG. 23B), T cell lymphoma (FIG. 23C), lung cancer (FIG. 23D), myeloma (FIG. 23E), mammary adenocarcinoma (FIG. 23F), renal cancer (FIG. 23G) and fibrosarcoma (FIG. 23H).

B16F1 melanoma = B16F1 melanoma in immune competent mice; format: in vivo; settings: B16F1 in immune competent C57BL/6 mice; 5 mg/kg, i.p.; monotherapy
Procedure: FIGS. 10A-B is a set of curves showing the tumor growth of B16F1 melanoma in C57BL/6J (FIG. 10A) or immunodeficient NSG mice (FIG. 10B) treated with PBS (Control, curve 1) or clonidine (5 mg/kg, i.p., curve 2).
FIGS. 11A-B is a set of curves showing the tumor growth of B16F1 melanoma in C57BL/6J (FIG. 11A) or NSG mice (FIG. 11B) treated with PBS (Control, curve 1) or guanfacine (5 mg/kg, i.p., curve 2).

CT26 colon carcinomas = assay: CT26 colon carcinoma model, daily i.p. treatment, tumor volume; format: in vivo, BALB/c mice; settings: CT26 in BALB/c mice; 5 mg/kg, i.p. daily from tumor size around 50 mm^3 until sacrifice
Procedure: Mice received a daily intra-peritoneal injection of guanabenz (5 mg/kg) or vehicle (PBS) from the day of randomization (and the day of ACT when applicable) until the day of sacrifice. For the co-administration of adrenergic receptor agonist and antagonist, BALB/c mice bearing CT26 colon carcinomas received daily injections of vehicle control, guanabenz (5 mg/kg, i.p.), or guanabenz (5 mg/kg, i.p.) plus yohimbine (10 mg/kg, i.p.), when the tumor size was around 50 mm^3, until the day of sacrifice.
[…] mice were injected subcutaneously with 2×10^6 CT26 colon tumor cells at an age of 6 to 8 weeks. […] For evaluation of yohimbine on the effect of clonidine and guanabenz, the mice were randomized into different groups when tumors size arrived around 100 mm^3 and received daily injections of guanabenz (5 mg/kg, i.p.), yohimbine (10 mg/kg), a mix of guanabenz (5 mg/kg, i.p.) and yohimbine (10 mg/kg, i.p.), clonidine (5 mg/kg, i.p.), a mix of clonidine (5 mg/kg, i.p.) and yohimbine (10 mg/kg, i.p.) or vehicle control. Tumor size was measured every 2 days and mice were sacrificed when the tumor in control group reached 1,000 mm^3.

myeloma = assay: Tumor model: myeloma; format: in vivo, mice; settings: myeloma (FIG. 22E, 23E)
Text: as §1

[1] = system: SKOV3 human ovarian tumor cells; settings: SKOV3 in NSG mice
Procedure: SKOV3 human ovarian tumor cells were injected subcutaneously in immune deficient NSG mice. When tumors were palpable, tumor-bearing mice received adoptive cell transfer of 3×10^6 of allogeneic human PBMC (i.v.) and were injected daily with clonidine (5 mg/kg, i.p.) or vehicle (PBS, i.p.) until sacrifice.

Clc1cccc(Cl)c1N=C1NCCN1 [clonidine]
tumor growth (mammary gland tumor): strong tumor inhibition
tumor growth (B16F1 melanoma): inhibited tumor growth
tumor growth (tumor volume) (CT26 colon carcinomas): promotes a decrease of the tumor volume; also recorded: strongly inhibited CT26 tumor growth
tumor growth (myeloma): strong tumor inhibition
anti-tumor efficacy of human PBMC ([1]; 3×10^6 PBMC i.v., 5 mg/kg i.p. daily): strongly increased the anti-tumor efficacy of human PBMC
expression of CD44 on tumor-infiltrated CD8+T cells ([1]; PBMC, 5 mg/kg i.p.): increased expression of CD44
infiltration of CD4+ human T cells into tumors ([1]; PBMC, 5 mg/kg i.p.): increased
infiltration of CD8+ human T cells into tumors ([1]; PBMC, 5 mg/kg i.p.): increased
tumor growth, compared to ACT alone ([1]; with ACT, 5 mg/kg i.p. daily): significantly decreased
tumor weight on the day of sacrifice, compared to ACT alone ([1]; with ACT, 5 mg/kg i.p. daily): significantly decreased

Source: US20230165836A1, “ALPHA-2 ADRENERGIC RECEPTOR AGONISTS FOR THE TREATMENT OF CANCER” (UNIVERSITÉ CATHOLIQUE DE LOUVAIN, priority 2020, published 2023)
